Columns and labels:
[1] = tested on: AIA in rats; experiment: Pharmacodynamic study for AIA in rats (complete Freund's adjuvant, joint swelling score); type: in vivo, Lewis rats; conditions: for Scoring value Day 1: Day 1, Mean ± SD; for Scoring value Day 1 / Scoring value Day 3 / Scoring value Day 7: AIA Lewis rats; for Scoring value Day 3: Day 3, Mean ± SD; for Scoring value Day 7: Day 7, Mean ± SD; for symptoms of arthritis induced by complete Freund's adjuvant (in words): AIA model in rats
From the text: Test Example 4: Pharmacodynamic Studies of the Compounds of Example 1, Example 1-b and Example 3 for AIA in Rats
Experimental material: complete Freund's adjuvant (Chondrex, 7027)
Experimental process: The in vivo efficacy of the compounds of the invention was investigated. 8-Week-old female Lewis rats were selected for modeling by complete Freund's adjuvant (J. of Immunology, 2010, 184: 5298-5307) and grouped after 12 days. 7 groups were divided: the model group, the Example 1 low dose group (3 mg/kg), the Example 1 high dose group (30 mg/kg), the Example 1-b low dose group (1 mg/kg), the Example 1-b high dose group (3 mg/kg), the Example 3 low dose group (3 mg/kg) and the Example 3 high dose group (30 mg/kg). The model group was given 0.5% CMC-Na and the rest groups were given the corresponding dose of the compound. The animals were scored according to the degree of joint swelling after 7 days of oral administration (Proc Soc Exp Bio Med 1962, 111: 544-547).

[2] = tested on: IFN-2α-stimulated TYK2/JAK1-mediated pathway (pSTAT3); experiment: Inhibition of STAT3 signaling pathway of human whole blood (IFN-2α-induced pSTAT3, flow cytometry); type: cell-based
Experimental: Test Example 3: Inhibition Effect of the Compounds of the Present Invention on STAT3 Signaling Pathway of Human Whole Blood
Sample preparation: The compounds of the present invention and the control were dissolved in DMSO solvent respectively to formulate into 10 mM initial liquid. The maximum concentration of the compound was 10 μM, 3-fold dilution, 10 concentration gradients, and duplicate wells for each concentration gradient.
Experimental process: 20 μL of the compound of the present invention was added to a flow cytometer tube (BD, 352052) containing 180 μL anticoagulant sodium heparin. 20 μL PBS was added to the control. The sample was incubated at 37° C. for 30 min. 2 μL stimulating factor was added and then incubated at 37° C. for 20 min. 1 mL erythrocyte lysate was rapidly added, and the sample was repeatedly inverted 5-10 times or vortexed and then incubated at 37° C. for 10 min. The sample was centrifuged at 600 g for 6-8 min. The supernatant was discarded. The precipitate was vortexed until suspending. The cells were washed with 3 mL PBS and centrifuged at 600 g for 6-8 min. The supernatant was discarded. The precipitate was vortexed until suspending. 1 mL of membrane breaking solution was added, and the system was mixed gently, incubated on ice for 30 min, and centrifuged at 600 g for 6-8 min. The supernatant was discarded. The precipitate was vortexed until suspending. The cells were washed. 3 mL PBS was added. The system was centrifuged at 600 g for 6-8 min. The supernatant was discarded. The precipitate was vortexed untile suspending. The process was repeated twice. 100 μL PBS was added to each staining tube. IFN-2a was added for stimulation, and CD3 and pSTAT3 antibodies […] were added. The system was mixed well, protected from light and incubated at room temperature for 60 min. The cells were washed. 3 mL PBS was added. The system was centrifuged at 600 g for 6-8 min. The supernatant was discarded. The precipitate was vortexed until suspending. The precipitate was suspended in 150 μL in the dark for the flow cytometry analysis. The IC50 (half inhibitory concentration) of the compounds was obtained by using the following non-linear fitting equation:
Y=Bottom+(Top−Bottom)/(1+10^((Log IC50−X)*HillSlope));
X: Log value of the concentration of the compound;
Bottom: The minimum value, Top: The maximum value, HillSlope: Slope
The inhibition effect of by the compounds of the present invention on the IFN-2α-stimulated TYK2/JAK1-mediated pathway is shown in Table 3. IC50 value of 0-100 nM is shown as A, IC50 value of 100-300 nM is shown as B, IC50 value of 300-1000 nM is shown as C, IC50 value which is greater than 1000 nM is shown as D. NT means not tested.

Compound | Scoring value Day 1 ([1]; 3 mg/kg oral) | Scoring value Day 3 ([1]; 3 mg/kg oral) | Scoring value Day 7 ([1]; 3 mg/kg oral) | Scoring value Day 1 ([1]; 30 mg/kg oral) | Scoring value Day 3 ([1]; 30 mg/kg oral) | Scoring value Day 7 ([1]; 30 mg/kg oral) | symptoms of arthritis induced by complete Freund's adjuvant (in words) [1] | IC50 [2] [nM] | Scoring value Day 1 ([1]; 1 mg/kg oral) | Scoring value Day 3 ([1]; 1 mg/kg oral) | Scoring value Day 7 ([1]; 1 mg/kg oral)
Cn1cc(Nc2nccc(C3=CC4CCC(C3)N4C(=O)[C@@H]3CC3(F)F)n2)cn1 (stereo partly drawn) [Compound 1, ((S)-2,2-difluorocyclopropyl)(3-(2-((1-methyl-1H-pyrazol-4-yl)amino)pyrimidin-4-yl)-8-azabicyclo[3.2.1]oct-2-en-8-yl)methanone] | 3.78 ± 2.54 | 2.67 ± 1.22 | 0.22 ± 0.44 | 4.11 ± 2.52 | 0.44 ± 0.73 | 0.00 ± 0.00 | significantly inhibit | < 100 |  |  | 
Cn1cc(Nc2nccc(C3=CC4CCC(C3)N4C(=O)NCC(F)(F)F)n2)cn1 (stereo not drawn) [Compound 3, 3-(2-((1-methyl-1H-pyrazol-4-yl)amino)pyrimidin-4-yl)-N-(2,2,2-trifluoroethyl)-8-azabicyclo[3.2.1]oct-2-ene-8-carboxamide] | 3.78 ± 1.92 | 3.78 ± 1.72 | 1.33 ± 0.87 | 3.44 ± 1.94 | 0.56 ± 0.53 | 0.00 ± 0.00 | significantly inhibit | < 100 |  |  | 
Cn1cc(Nc2nccc(C3=C[C@H]4CC[C@@H](C3)N4C(=O)[C@@H]3CC3(F)F)n2)cn1 [Compound 1-b, ((S)-2,2-difluorocyclopropyl)((1R,5S)-3-(2-((1-methyl-1H-pyrazol-4-yl)amino)pyrimidin-4-yl)-8-azabicyclo[3.2.1]oct-2-en-8-yl)methanone] | 3.30 ± 2.67 | 0.30 ± 0.95 | 1.50 ± 3.75 |  |  |  | significantly inhibit | < 100 | 3.30 ± 2.67 | 3.10 ± 3.51 | 3.30 ± 3.71

From patent publication US20220348572A1, “BRIDGED HETEROCYCLYL-SUBSTITUTED PYRIMIDINE COMPOUND, PREPARATION METHOD THEREFOR, AND PHARMACEUTICAL USE THEREOF” (The National Institutes of Pharmaceutical R&D Co., Ltd., priority 2019, published 2022)
